In PubChem BioAssay AID1033 (Sanford-Burnham Center for Chemical Genomics, 2008) one finds Kd data, which are given here for 101 compounds.

Each structure is given as a SMILES string. Activity calls are given as the source filed them. The rule behind the calls is not given here. Some results are limits rather than exact numbers.

The target of this assay is Chaperone protein DnaK (Escherichia coli (strain K12)) (UniProt P0A6Y8). The assay is described as follows: E. coli DnaK SBD ligand binding – biophysical, NMR, chaperone (AID 1033). Conditions: Purified DnaK SBD.
Chaperone protein DnaK (Escherichia coli (strain K12)), sequence (P0A6Y8 whole entry, looked up): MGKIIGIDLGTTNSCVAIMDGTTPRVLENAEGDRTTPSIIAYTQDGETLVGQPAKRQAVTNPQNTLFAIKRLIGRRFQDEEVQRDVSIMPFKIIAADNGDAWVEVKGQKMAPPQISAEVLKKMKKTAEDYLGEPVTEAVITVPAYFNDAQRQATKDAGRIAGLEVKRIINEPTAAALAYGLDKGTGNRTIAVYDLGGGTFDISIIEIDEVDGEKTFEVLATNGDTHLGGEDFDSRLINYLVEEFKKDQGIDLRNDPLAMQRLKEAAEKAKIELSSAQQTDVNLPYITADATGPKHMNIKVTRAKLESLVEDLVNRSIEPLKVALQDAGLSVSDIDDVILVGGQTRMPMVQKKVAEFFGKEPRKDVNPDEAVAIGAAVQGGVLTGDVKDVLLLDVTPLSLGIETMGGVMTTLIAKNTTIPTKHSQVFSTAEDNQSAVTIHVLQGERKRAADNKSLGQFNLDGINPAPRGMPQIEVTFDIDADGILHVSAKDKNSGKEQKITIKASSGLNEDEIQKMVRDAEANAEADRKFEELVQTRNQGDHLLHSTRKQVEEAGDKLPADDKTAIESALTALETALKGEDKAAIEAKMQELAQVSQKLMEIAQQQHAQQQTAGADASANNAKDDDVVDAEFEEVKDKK

For orientation: Kd means the constant that tells how readily two partners part at equilibrium. For `O=c1[nH]c(N2CCOCC2)nc2ccccc12`, the Kd was > 4 mM (inactive).

In the case of `Cc1nnc(SCC(=O)N2CCc3ccccc32)s1`, the Kd was > 4 mM (inactive).

Regarding `O=C1C2CC=CCC2C(=O)N1c1cccc(O)c1` (stereo unspecified), the Kd is > 4 mM (inactive).

For the compound `CNC(=S)Nc1cccc(C(=O)O)c1`, the Kd was > 4 mM (inactive).

As for `Cc1ccc(CCC(N)=O)o1`, the Kd is > 4 mM (inactive).

On to `COc1cccc(-c2nn(-c3ccccc3)cc2CO)c1`, for which the Kd was > 4 mM (inactive).

`Cc1ccc(-c2c(C)n([O-])c3c([n+]2=O)CCCC3)o1`: the Kd was > 4 mM (inactive).

On to `O=C(O)c1cccc(N2C(=O)C3CC=CCC3C2=O)c1` (stereo unspecified), for which the Kd was > 4 mM (inactive).

`NC(c1ccccc1)c1ccccn1` (stereo unspecified): the Kd is > 4 mM (inactive).

In the case of `CS(=O)(=O)c1ccccc1C(=O)Nc1nccs1`, the Kd is > 4 mM (inactive).

For `Cc1n[nH]c(=S)n(/N=C/c2cccs2)c1=O`, the Kd is > 4 mM (inactive).

For `CC1CCN(C(=O)c2cc3ccccc3o2)CC1`, the Kd was > 4 mM (inactive).

As for `CCn1cnc2sc(C(=O)O)c(C)c2c1=O`, the Kd was > 4 mM (inactive).

On to `O=C(O)C1CSC(c2ccccc2)N1` (stereo unspecified), for which the Kd was > 4 mM (inactive).

As for `O=C(NCc1cccs1)c1ccc2c(c1)OCCO2`, the Kd was > 4 mM (inactive).

On to `COc1nc(C)ccc1-c1noc(-c2ccco2)n1`, for which the Kd was > 4 mM (inactive).

Take `NS(=O)(=O)c1ccc(NC(=O)c2ccccc2F)cc1`: the Kd is > 4 mM (inactive).

Consider `COc1cc(C(C)=O)ccc1OC(=O)N1CCOCC1`, for which the Kd was > 4 mM (inactive).

For `CC(=O)NC(O)C(=O)c1cccs1` (stereo unspecified), the Kd is > 4 mM (inactive).

As to `Nc1nc2ncc(CNc3ccc(C(=O)N[C@@H](CCC(=O)O)C(=O)O)cc3)nc2c(=O)[nH]1`, the Kd was > 4 mM (inactive).

Regarding `CC[C@H](CCC(C)[C@H]1CCC2C3CCC4C[C@@H](O)CC[C@]4(C)C3CC[C@@]21C)C(C)C` (stereo partly specified), the Kd is > 4 mM (inactive).

On to `CC(=O)NCCc1cc2ccc(C)c(C)c2[nH]c1=O`, for which the Kd was > 4 mM (inactive).

Consider `CN(C)S(=O)(=O)c1ccccc1C#N`, for which the Kd is > 4 mM (inactive).

For the compound `Cc1ccccc1C(=O)Nn1cnnc1`, the Kd was > 4 mM (inactive).

Regarding `Cc1occc1C(=O)Nc1ccc2c(c1)OCO2`, the Kd is > 4 mM (inactive).

On to `CN1CC(=O)N=C1N`, for which the Kd was > 4 mM (inactive).

Consider `Cc1ccc(C)c(C(=O)n2cnnc2N)c1`, for which the Kd was > 4 mM (inactive).

In the case of `CC1(C)C(=O)C=C[C@@]2(C)C1C[C@@H](O)[C@]1(C)C2CC[C@@]2(C)[C@H](c3ccoc3)OC(=O)[C@H]3O[C@]321` (stereo partly specified), the Kd is > 4 mM (inactive).

In the case of `NC(=O)CSc1nc2ccccc2c(=O)[nH]1`, the Kd was > 4 mM (inactive).

As for `COc1ccc(-c2coc3cc(OC)cc(OC)c3c2=O)cc1`, the Kd was > 4 mM (inactive).

Consider `c1cc2c(cc1[C@H]1OC[C@H]3[C@@H]1CO[C@H]3c1ccc3c(c1)OCO3)OCO2`, for which the Kd is > 4 mM (inactive).

For `CC(O)c1ccc(C(C)O)cc1` (stereo unspecified), the Kd was > 4 mM (inactive).

With `CS(=O)(=O)N/N=C/c1cccs1`, the Kd was > 4 mM (inactive).

As for `OC[C@@H](O)[C@@H](O[C@@H]1O[C@H](CO)[C@@H](O)[C@H](O)[C@H]1O)[C@H](O)[C@@H](O)CO`, the Kd was > 4 mM (inactive).

On to `CC(=O)c1ccc(-n2ccnc2)cc1`, for which the Kd is > 4 mM (inactive).

`COc1cnn(Cc2ccccc2)c(=O)c1Cl`: the Kd was > 4 mM (inactive).

On to `Cc1cc(-c2ccc(Cl)cc2)n2nc(N)nc2n1`, for which the Kd is > 4 mM (inactive).

As to `CC(CCC(=O)O)[C@H]1CCC2C3C(C[C@H](O)[C@@]21C)[C@@]1(C)CC[C@@H](O)C[C@H]1C[C@H]3O` (stereo partly specified), the Kd was > 4 mM (inactive).

Take `O=C(Nn1cnnc1)c1csc2ccccc12`: the Kd was > 4 mM (inactive).

Regarding `Nc1cc(-c2ccco2)[nH]n1`, the Kd is > 4 mM (inactive).

Consider `O=C(O)c1cccc2c1OCC2`, for which the Kd was > 4 mM (inactive).

Regarding `CN(C)C(=O)N1CCN(C(=O)c2ccco2)CC1`, the Kd is > 4 mM (inactive).

With `Cc1cc(=O)cc(C)n1-c1ccccc1N`, the Kd was > 4 mM (inactive).

Turning to `Oc1cc2c(cc1O)C1c3ccc(O)c(O)c3OCC1(O)C2` (stereo unspecified), the Kd is > 4 mM (inactive).

As to `O=C1NCC(=O)N2CCc3ccccc3C12` (stereo unspecified), the Kd is > 4 mM (inactive).

Take `COC(=O)/C(C)=C\CC12OC(C)(C)C3CC(C=C4C(=O)c5c(OC)c6c(c(CC=C(C)C)c5OC431)OC(C)(CCC=C(C)C)C=C6)C2=O` (stereo unspecified): the Kd is > 4 mM (inactive).

Consider `CCCc1ncc(C(O)c2cccc3ccccc23)n1C` (stereo unspecified), for which the Kd is > 4 mM (inactive).

For the compound `NS(=O)(=O)c1ccc(NC(=S)NC2CC2)cc1`, the Kd was > 4 mM (inactive).

With `O=C1CSC(=S)N1N1C(=O)C2C3C=CC(C3)C2C1=O` (stereo unspecified), the Kd was > 4 mM (inactive).

As for `O=C(COc1ccccc1Cl)N1CCCC1`, the Kd is > 4 mM (inactive).

As to `Cc1cc(C)cc(C(=O)n2cnnc2N)c1`, the Kd was > 4 mM (inactive).

With `CN(C)c1ccc(C2CC(=O)CC(=O)C2)cc1`, the Kd is > 4 mM (inactive).

`COc1ccc(C2(C)NC(=O)NC2=O)cc1` (stereo unspecified): the Kd is > 4 mM (inactive).

In the case of `NC(=O)c1ccccc1NC(=O)c1cccnc1`, the Kd was > 4 mM (inactive).

Regarding `O=C(O)C1CCN(c2ccc(C(F)(F)F)cn2)CC1`, the Kd is > 4 mM (inactive).

For `O=C(O)CCSc1nc2ccccc2s1`, the Kd was > 4 mM (inactive).

With `CN1CCOc2cc(C(=O)O)ccc21`, the Kd is > 4 mM (inactive).

With `CN(C)C(=O)C12CCC(C)(C(=O)O1)C2(C)C` (stereo unspecified), the Kd is > 4 mM (inactive).

In the case of `CC(C)C1COc2cc3oc(=O)ccc3cc2O1` (stereo unspecified), the Kd was > 4 mM (inactive).

As to `O=C1CC(=O)N(c2ccccc2)C(=O)N1`, the Kd was > 4 mM (inactive).

As to `NC1=NN(c2ccccc2)C(=O)C1`, the Kd is > 4 mM (inactive).

As to `CCS(=O)(=O)N1CCN(c2ccccc2F)CC1`, the Kd is > 4 mM (inactive).

As to `O=C(Nc1ccon1)c1cccc(C(F)(F)F)c1`, the Kd is > 4 mM (inactive).

With `NC(=S)NC(=O)CN1C(=O)c2ccccc2C1=O`, the Kd is > 4 mM (inactive).

In the case of `Cn1ncc(SCc2ccco2)c(Cl)c1=O`, the Kd was > 4 mM (inactive).

`O=C(O)c1[nH]nc2c1COc1ccccc1-2`: the Kd is > 4 mM (inactive).

In the case of `COC(=O)c1ccc(Cl)c(NC(C)=O)c1`, the Kd was > 4 mM (inactive).

Turning to `Nc1ccc(-c2cn3c(n2)SCC3)cc1`, the Kd is > 4 mM (inactive).

Take `Cn1c(=O)cc(O)c2ccccc21`: the Kd was > 4 mM (inactive).

For the compound `Cn1nnc2cc(C(=O)O)ccc21`, the Kd is > 4 mM (inactive).

`O=C(NCc1ccccc1Cl)c1cnn2cccnc12`: the Kd was > 4 mM (inactive).

`CN1C(=O)C2C=CC1C1C(=O)N(c3ccccc3)C(=O)C21` (stereo unspecified): the Kd is > 4 mM (inactive).

Consider `COc1cc2nc[nH]c(=O)c2cc1OC`, for which the Kd is > 4 mM (inactive).

With `C[C@@H]1O[C@@H](O[C@H]2[C@@H](Oc3cc(O)c4c(c3)O[C@H](c3ccc(O)cc3)CC4=O)O[C@H](CO)[C@@H](O)[C@@H]2O)[C@H](O)[C@H](O)[C@H]1O`, the Kd was > 4 mM (inactive).

On to `Nc1csc(C(=O)O)c1`, for which the Kd is > 4 mM (inactive).

For the compound `Nc1ccc(S(=O)(=O)N2CCCCC2)cc1`, the Kd is > 4 mM (inactive).

On to `CC(C)[C@@H]1CC[C@@H](C)CC1=O`, for which the Kd is > 4 mM (inactive).

Consider `NC1=C([N+](=O)[O-])C(=O)c2ccccc21`, for which the Kd is > 4 mM (inactive).

Regarding `NC1CCN(Cc2ccccc2)CC1`, the Kd was > 4 mM (inactive).

As to `O=C(Nc1cccc(Cl)c1)c1cnn2cccnc12`, the Kd was > 4 mM (inactive).

For the compound `CSc1nnnn1-c1cccc(O)c1`, the Kd was > 4 mM (inactive).

For the compound `NC(=O)c1cc(Cl)c(C(N)=O)cc1Cl`, the Kd was > 4 mM (inactive).

With `C/C=C(\C)C(=O)O[C@@H]1c2c(ccc3ccc(=O)oc23)OC(C)(C)[C@@H]1OC(C)=O`, the Kd is > 4 mM (inactive).

Consider `Cc1ccc(-c2nc(N)n(C(=O)c3cccnc3)n2)cc1`, for which the Kd was > 4 mM (inactive).

As to `CC(=O)c1sc(NC(=O)C=C(C)C)nc1C`, the Kd is > 4 mM (inactive).

For `O=C(O)CC12CC3CC(CC(O)(C3)C1)C2`, the Kd was > 4 mM (inactive).

For `NC(=O)CSc1nc2ncnc(N)c2[nH]1`, the Kd was > 4 mM (inactive).

For `Cc1c(CO)cnn1-c1ccccc1`, the Kd was > 4 mM (inactive).

For the compound `C[C@H]1C(=O)CCC2[C@]3(C)CC[C@@]4(C)C5CC(C)(C)CC[C@]5(C)CC[C@]4(C)C3CC[C@@]21C` (stereo partly specified), the Kd is > 4 mM (inactive).

On to `O=C(O)C(Cc1cnc[nH]1)N1C(=O)c2ccccc2C1=O` (stereo unspecified), for which the Kd is > 4 mM (inactive).

As to `Cc1c(C(=O)OC(C)C)[nH]c2c1C(=O)CCC2`, the Kd was > 4 mM (inactive).

Turning to `CCOC(=O)Cc1cc(=O)n2[nH]c(C)cc2n1`, the Kd is > 4 mM (inactive).

With `Cc1ccc(=O)[nH]c1`, the Kd is > 4 mM (inactive).

Take `O=C1CCCC2C3CC(CN12)[C@@H]1CCCCN1C3` (stereo partly specified): the Kd is > 4 mM (inactive).

`Cc1cc(S(=O)(=O)N2CCOCC2)ccc1F`: the Kd was > 4 mM (inactive).

Take `O=S(=O)(Cc1ccccc1Cl)Nc1ccccn1`: the Kd was > 4 mM (inactive).

Turning to `O=c1[nH]cc(S(=O)(=O)N2CCc3ccccc32)c(=O)[nH]1`, the Kd is > 4 mM (inactive).

For the compound `COC(=O)CCC(C)C1CCC2C3CCC4C[C@H](O)CC[C@]4(C)C3C[C@H](O)[C@]12C` (stereo partly specified), the Kd is > 4 mM (inactive).

With `Cc1scc(C(=O)Nc2ccon2)c1-c1ccccc1`, the Kd is > 4 mM (inactive).

Regarding `Cc1ccc(C)c(C(=O)NCc2ccncc2)c1`, the Kd was > 4 mM (inactive).

Regarding `CC(=O)N/N=C(\C)c1cccc(N)c1`, the Kd is > 4 mM (inactive).
